Measured values from US8912121B2, “Herbicidal compositions comprising 4-amino-3-chloro-5-fluoro-6-(4-chloro-2-fluoro-3-methoxyphenyl)pyridine-2-carboxylic acid or a derivative thereof and certain PS II inhibitors” (Dow Agrosciences LLC, priority 2012, dated 2014).

Columns and labels:
[1] = system: ECHOR (Echinochloa oryzoides, early watergrass); assay: In-water applied mixtures, transplanted paddy rice, greenhouse; format: in vivo, Echinochloa oryzoides (Ard.) Fritsch; details: 19 DAA
Procedure: (§1) Weed seeds or nutlets of the desired test plant species were planted in puddled soil (mud) prepared by mixing a shredded, non-sterilized mineral soil (50.5 percent silt, 25.5 percent clay, and 24 percent sand, with a pH of about 7.6 and an organic matter content of about 2.9 percent) and water at a 1:1 volumetric ratio. The prepared mud was dispensed in 365 mL aliquots into 16-ounce (oz.) non-perforated plastic pots with a surface area of 86.59 square centimeters (cm^2) leaving a headspace of 3 centimeters (cm) in each pot Mud was allowed to dry overnight prior to planting or transplanting. Rice seeds were planted in Sun Gro MetroMix® 306 planting mixture, which typically has a pH of 6.0 to 6.8 and an organic matter content of about 30 percent, in plastic plug trays. Seedlings at the second or third leaf stage of growth were transplanted into 840 mL of mud contained in 32-oz. non-perforated plastic pots with a surface area of 86.59 cm^2 4 days prior to herbicide application. The paddy was created by filling the headspace of the pots with 2.5 to 3 cm of water. When required to ensure good germination and healthy plants, a fungicide treatment and/or other chemical or physical treatment was applied. The plants were grown for 4-22 days in a greenhouse with an approximate 14 h photoperiod which was maintained at about 29° C during the day and 26° C. during the night. Nutrients were added as Osmocote® (19:6:12, N:P:K+ minor nutrients) at 2 g per 16-oz. pot and 4 g per 32-oz. pot. Water was added on a regular basis to maintain the paddy flood, and supplemental lighting was provided with overhead metal halide 1000-Watt lamps as necessary. The plants were employed for testing when they reached the first through fourth true leaf stage.
(§2) Treatments consisted of the acid or esters of 4-amino-3-chloro-5-fluoro-6-(4-chloro-2-fluoro-3-methoxy-phenyl)pyridine-2-carboxylic acid (compound A) each formulated as an SC (suspension concentrate) and various herbicidal components alone and in combination. Forms of compound A were applied on an acid equivalent basis.
(§3) Other herbicidal components were applied on an active ingredient basis and included photosystem II (PSII)-inhibits propanil formulated as […] bentazon-sodium formulated as Basagran®, and simetryne (technical grade material).
(§4) Treatment requirements for each compound or herbicidal component were calculated based upon the rates being tested, the concentration of active ingredient or acid equivalent in the formulation, an application volume of 2 mL per component per pot, and an application area of 86.59 cm^2 per pot.
(§5) For formulated compounds, a measured amount was placed in an individual 100 or 200 mL glass vial and was dissolved in a volume of 1.25% (v/v) Agri-Dex® crop oil concentrate to obtain application solutions.
(§6) For technical grade compounds, a weighed amount was placed in an individual 100 to 200 mL glass vial and was dissolved in a volume of acetone to obtain concentrated stock solutions. […] The concentrated stock solutions obtained were diluted with an equivalent volume of an aqueous mixture containing 2.5% (v/v) crop oil concentrate so that the final application solutions contained 1.25% (v/v) crop oil concentrate.
(§7) Applications were made by injecting with a pipetter appropriate amounts of the application solutions, individually and sequentially, into the aqueous layer of the paddy. Control plants were treated in the same manner with the solvent blank. Applications were made so that all treated plant material received the same concentrations of acetone and crop oil concentrate.
(§8) The treated plants and control plants were placed in a greenhouse as described above and water was added as needed to maintain a paddy flood. After approximately 3 weeks the condition of the test plants as compared with that of the untreated plants was determined visually and scored on a scale of 0 to 100 percent where 0 corresponds to no injury or growth inhibition and 100 corresponds to complete kill. […]

[2] = system: CYPRO (Cyperus rotundus, purple nutsedge); assay: as above; format: in vivo, Cyperus rotundus L.; details: 19 DAA
Procedure: as §1, §2, §3, §4, §5, §6, §7, §8

[3] = system: LAMPU (Lamium purpureum, purple deadnettle); assay: Postemergence herbicidal activity of mixtures in cereal crops, greenhouse; format: in vivo, Lamium purpureum L.
Procedure: Seeds of the desired test plant species were planted in Sun Gro MetroMix® 306 planting mixture, which typically has a pH of 6.0 to 6.8 and an organic matter content of about 30 percent, in plastic pots with a surface area of 103.2 square centimeters (cm^2). When required to ensure good germination and healthy plants, a fungicide treatment and/or other chemical or physical treatment was applied. The plants were grown for 7-36 days in a greenhouse with an approximate 14 hour photoperiod which was maintained at about 18° C. during the day and about 17° C. during the night. Nutrients and water were added on a regular basis and supplemental lighting was provided with overhead metal halide 1000-Watt lamps as necessary. The plants were employed for testing when they reached the second or third true leaf stage.
Treatments consisted of the benzyl ester of 4-amino-3-chloro-5-fluoro-6-(4-chloro-2-fluoro-3-methoxy-phenyl)pyridine-2-carboxylic acid (Compound A), formulated as an SC, a second cereal herbicide alone and then both in combination.
Other herbicidal components were applied on an active ingredient basis and included PSII-inhibiting herbicides.
Measured aliquots of benzyl ester of 4-amino-3-chloro-5-fluoro-6-(4-chloro-2-fluoro-3-methoxy-phenyl)pyridine-2-carboxylic acid (Compound A) were placed in 25 milliliter (mL) glass vials and diluted in a volume of 1.25% (v/v) Agri-Dex® crop oil concentrate to obtain stock solutions. Compound requirements are based upon a 12 mL application volume at a rate of 187 liters per hectare (L/ha). Spray solutions of the second cereal herbicide and experimental compound mixtures were prepared by adding the stock solutions to the appropriate amount of dilution solution to form 12 mL spray solution with active ingredients in two- and three-way combinations. Formulated compounds were applied to the plant material with an overhead Mandel track sprayer equipped with an 8002E nozzle calibrated to deliver 187 L/ha over an application area of 0.503 square meters (m^2) at a spray height of 18 inches (46 cm) above average plant canopy. Control plants were sprayed in the same manner with the solvent blank.
The treated plants and control plants were placed in a greenhouse as described above and watered by sub-irrigation to prevent wash-off of the test compounds. After 20-22 days, the condition of the test plants as compared with that of the control plants was determined visually and scored on a scale of 0 to 100 percent where 0 corresponds to no injury and 100 corresponds to complete kill.
Colby's equation was used to determine the herbicidal effects expected from the mixtures (Colby, S. R. 1967. Calculation of the synergistic and antagonistic response of herbicide combinations. Weeds 15:20-22).
The following equation was used to calculate the expected activity of mixtures containing two active ingredients, A and B: Expected=A+B−(A×B/100)

COc1c(Cl)ccc(-c2nc(C(=O)OCc3ccccc3)c(Cl)c(N)c2F)c1F [Compound A Benzyl Ester, benzyl ester of 4-amino-3-chloro-5-fluoro-6-(4-chloro-2-fluoro-3-methoxy-phenyl)pyridine-2-carboxylic acid]
Visual Weed Control (%) Obs ([1]; 8 g ae/ha): 10% | Visual Weed Control (%) Obs ([1]; 16 g ae/ha): 20% | Visual Weed Control (%) Obs ([1]; 32 g ae/ha): 25% | Visual Weed Control (%) Obs ([2]; 8 g ae/ha): 50% | Visual Weed Control (%) Obs ([2]; 16 g ae/ha): 85% | Visual Weed Control (%) Obs ([2]; 32 g ae/ha): 90% | Visual Weed Control (%)-21 DAA LAMPU Obs ([3]; Compound A Benzyl Ester 2.5 g ai/ha): 80% | Visual Weed Control (%)-21 DAA LAMPU Obs ([3]; Compound A Benzyl Ester 2.5 g ai/ha, Table 22): 80% | Visual Weed Control (%)-21 DAA LAMPU Obs ([3]; Compound A Benzyl Ester 5 g ai/ha): 86% | Visual Weed Control (%)-21 DAA LAMPU Obs ([3]; Compound A Benzyl Ester 5 g ai/ha, Table 22): 86% | Visual Weed Control (%)-21 DAA LAMPU Obs ([3]; Compound A Benzyl Ester 10 g ai/ha): 94% | Visual Weed Control (%)-21 DAA LAMPU Obs ([3]; Compound A Benzyl Ester 10 g ai/ha, Table 22): 94%
